Results as given in paper PMC11189555, “Aryl amino acetamides prevent Plasmodium falciparum ring development via targeting the lipid-transfer protein PfSTART1” (Nature Communications, 2024).
Where two headings read alike, the source gives them in different places.

Tested on: PopD F7 M-833 resistant clone (PfSTART1 N309K)
Assay: Growth inhibition assay (72 h, LDH activity)
Assay type: cell-based, Plasmodium falciparum
Method: The drug was then removed, and parasites were allowed to recover. Another cycle of drug treatment (3 μM M-833) was then resumed. The resistant lines were cloned out by limiting dilution (diluting the culture into a 96-well plate to achieve an average of ~0.3 parasites per well), prior to growth inhibition assays and genomic DNA (gDNA) extraction (DNeasy Blood and Tissue kit (Qiagen)[18].
Parasite growth assays with inhibitory compounds were performed as per[11] and are fully described in the Supplementary Information.
Molecular biology and transfection of P. falciparum: CRISPR method.
The full 5’ homology region of pfstart1 (either WT, N309K or N330K) was amplified from pPfSTART1-HA-2A-Neo-glmS with the same 5’ BglII primer and a new 3’ primer that replaced with PstI with SpeI and introduced a stop codon. The PCR product was then digested with BglII and SpeI and inserted into similarly digested p1.2 parasite vector2. The p1.2 vector had previously been inserted with a homology region amplified from the 3’ end of the pfstart1 gene (3’HB) to form a second homology block for double recombination. The primers used to amplify 3’HB are listed primers listed in […]
60 μg of p1.2-PfSTART1(WT/N309K/N330K) plasmid was linearised with KasI, precipitated in 3 M sodium acetate and ethanol (70% final concentration) overnight at -20°C. The DNA pellet was washed in cold 70% ethanol and resuspended in cytomix 3.
50 μ M of crRNA ( Table S 2) and 50 μM of tracRNA (Integrated DNA Technologies) were allowed to form a duplex (5 min at 95°C), and Cas9 enzyme (Integrated DNA Technologies) was added, and incubated for 20 min at room temperature 4. This crRNA -tracRNA -Cas9 mix was added to each DNA preparation and transfected to 3D7 ring parasites using the Bio -Rad Gene Pulser at 310 V and 950 μF.
Parasites containing the transfected DNA were selected using 2.5 nM WR99210 (Jacobus). Parasites lines were cloned using limiting dilution. Correct integration was tested by PCR (using primer START_5’UTR.F and START_Int.R1 , Table S 2), and sequencing was done using the primers START_3F and START_Int.R2 (Table S 2).
Growth inhibition assays. Synchronised ring-stage parasites (0.3-0.6% parasitemia, 2% haematocrit) were grown for 72 h in a serial-dilution of the compound under […]
and compound 4. Note that M-833 was first purchased from MolPort (MolPort -002-267-916) then made in-house at WEHI: the differences observed in EC50s across experiments are attributed to the different batches of M -833. For some experiments, 0, 0.25 or 2.5 mM of glucosamine (GlcN) was also added. Experiments were set up in technical duplicates or triplicates. Following a freeze -thaw cycle, lactate dehydrogenase (LDH) activity was assessed as an indicator of parasite growt h 5. 30 μL of parasite culture was incubated for 30 min in the dark with 75 μL Malstat mixture (0.1 M Tris pH 9.0, 20 g/L lactic acid, pH 7.5, 0.2% Triton-X100, 0.5 g/L acetylpyridine adenine dinucleotide (APAD, Sigma), 200 μg/mL nitroblue tetrazolium (NBT; Sigma), 1 μg/mL phenozine ethosulfate (PES; Sigma)). Absorbance was then measured at 650 nm, transformed using the formula below, plotted against the logarithm of the concentrations, and a non-linear regression (log(inhibitor) vs. response, variable slope) was calculated using GraphPad Prism to assess the half-inhibitory […]
Growth inhibition % = (1 − average(sample)− average(uRBC)) ∗ 100 […]
The DMSO samples were also used to assess growth of parasite in the presence of 0.25 and 2.5 mM GlcN (normalised by DMSO in 0 mM GlcN).
Egress, invasion & recovery assay. To measure egress, invasion and follow up recovery in the presence of different compounds, we adapted the method developed in6, using Hyp1-Nluc parasites7. These parasites episomally express the exported PEXEL protein Hyp1 (PF3D7_0113300) tagged with a NanoLuc luciferase (NLuc) and were selected with 2.5 nM WR99210 (Jacobus). Highly synchronised schizonts were […]

Compound: Cc1cc(Cl)c(S(=O)(=O)N2CCCC2)cc1OCC(=O)NC1CCCCC1 [M-833]
- Normalised to DMSO (M-833 0.0390625 uM, Pop D-F7 replicate 1): 102.746
- Normalised to DMSO (M-833 0.0390625 uM, Pop D-F7 replicate 3): 104.013
- Normalised to DMSO (M-833 0.078125 uM, Pop D-F7 replicate 1): 103.501
- Normalised to DMSO (M-833 0.078125 uM, Pop D-F7 replicate 3): 102.629
- Normalised to DMSO (M-833 0.15625 uM, Pop D-F7 replicate 1): 104.635
- Normalised to DMSO (M-833 0.15625 uM, Pop D-F7 replicate 3): 103.875
- Normalised to DMSO (M-833 0.3125 uM, Pop D-F7 replicate 1): 106.297
- Normalised to DMSO (M-833 0.3125 uM, Pop D-F7 replicate 3): 100.415
- Normalised to DMSO (M-833 0.625 uM, Pop D-F7 replicate 1): 98.8413
- Normalised to DMSO (M-833 0.625 uM, Pop D-F7 replicate 3): 99.3081
- Normalised to DMSO (M-833 1.25 uM, Pop D-F7 replicate 1): 89.7985
- Normalised to DMSO (M-833 1.25 uM, Pop D-F7 replicate 3): 89.8985
- Normalised to DMSO (M-833 2.5 uM, Pop D-F7 replicate 1): 74.9622
- Normalised to DMSO (M-833 2.5 uM, Pop D-F7 replicate 3): 59.8708
- Normalised to DMSO (M-833 5 uM, Pop D-F7 replicate 1): 50.7053
- Normalised to DMSO (M-833 5 uM, Pop D-F7 replicate 3): 43.6808
- Normalised to DMSO (M-833 10 uM, Pop D-F7 replicate 1): 28.7406
- Normalised to DMSO (M-833 10 uM, Pop D-F7 replicate 3): 39.9446
- inhibition at 0.0390625 µM (Plasmodium falciparum, M-833 0.0390625 uM, Pop D-F7 replicate 1, read-out: % Inhibition): -2.75%
- inhibition at 0.0390625 µM (Plasmodium falciparum, M-833 0.0390625 uM, Pop D-F7 replicate 3, read-out: % Inhibition): -4.01%
- inhibition at 0.078125 µM (Plasmodium falciparum, M-833 0.078125 uM, Pop D-F7 replicate 1, read-out: % Inhibition): -3.5%
- inhibition at 0.078125 µM (Plasmodium falciparum, M-833 0.078125 uM, Pop D-F7 replicate 3, read-out: % Inhibition): -2.63%
- inhibition at 0.15625 µM (Plasmodium falciparum, M-833 0.15625 uM, Pop D-F7 replicate 1, read-out: % Inhibition): -4.63%
- inhibition at 0.15625 µM (Plasmodium falciparum, M-833 0.15625 uM, Pop D-F7 replicate 3, read-out: % Inhibition): -3.87%
- inhibition at 0.3125 µM (Plasmodium falciparum, M-833 0.3125 uM, Pop D-F7 replicate 1, read-out: % Inhibition): -6.3%
- inhibition at 0.3125 µM (Plasmodium falciparum, M-833 0.3125 uM, Pop D-F7 replicate 3, read-out: % Inhibition): -0.415%
- inhibition at 0.625 µM (Plasmodium falciparum, M-833 0.625 uM, Pop D-F7 replicate 1, read-out: % Inhibition): 1.16%
- inhibition at 0.625 µM (Plasmodium falciparum, M-833 0.625 uM, Pop D-F7 replicate 3, read-out: % Inhibition): 0.692%
- inhibition at 1.25 µM (Plasmodium falciparum, M-833 1.25 uM, Pop D-F7 replicate 1, read-out: % Inhibition): 10.2%
- inhibition at 1.25 µM (Plasmodium falciparum, M-833 1.25 uM, Pop D-F7 replicate 3, read-out: % Inhibition): 10.1%
- inhibition at 2.5 µM (Plasmodium falciparum, M-833 2.5 uM, Pop D-F7 replicate 1, read-out: % Inhibition): 25%
- inhibition at 2.5 µM (Plasmodium falciparum, M-833 2.5 uM, Pop D-F7 replicate 3, read-out: % Inhibition): 40.1%
- inhibition at 5 µM (Plasmodium falciparum, M-833 5 uM, Pop D-F7 replicate 1, read-out: % Inhibition): 49.3%
- inhibition at 5 µM (Plasmodium falciparum, M-833 5 uM, Pop D-F7 replicate 3, read-out: % Inhibition): 56.3%
- inhibition at 10 µM (Plasmodium falciparum, M-833 10 uM, Pop D-F7 replicate 1, read-out: % Inhibition): 71.3%
- inhibition at 10 µM (Plasmodium falciparum, M-833 10 uM, Pop D-F7 replicate 3, read-out: % Inhibition): 60.1%
- inhibition at 0.0390625 µM (Plasmodium falciparum, Pop D-F7 replicate 1, M-833 0.0390625 uM): -0.465%
- inhibition at 0.078125 µM (Plasmodium falciparum, Pop D-F7 replicate 1, M-833 0.078125 uM): -0.401%
- inhibition at 0.15625 µM (Plasmodium falciparum, Pop D-F7 replicate 1, M-833 0.15625 uM): 3.58%
- inhibition at 0.3125 µM (Plasmodium falciparum, Pop D-F7 replicate 1, M-833 0.3125 uM): 2.21%
- inhibition at 0.625 µM (Plasmodium falciparum, Pop D-F7 replicate 1, M-833 0.625 uM): 8.79%
- inhibition at 1.25 µM (Plasmodium falciparum, Pop D-F7 replicate 1, M-833 1.25 uM): 10.1%
- inhibition at 2.5 µM (Plasmodium falciparum, Pop D-F7 replicate 1, M-833 2.5 uM): 29%
- inhibition at 5 µM (Plasmodium falciparum, Pop D-F7 replicate 1, M-833 5 uM): 45.3%
- inhibition at 10 µM (Plasmodium falciparum, Pop D-F7 replicate 1, M-833 10 uM): 71.1%
- EC50 (Plasmodium falciparum, read-out: EC50 (95% confidence interval)): 2970 nM
- Normalised to DMSO (Pop D-F7 replicate 1, M-833 0.0390625 uM): 100.465
- Normalised to DMSO (Pop D-F7 replicate 1, M-833 0.078125 uM): 100.401
- Normalised to DMSO (Pop D-F7 replicate 1, M-833 0.15625 uM): 96.4217
- Normalised to DMSO (Pop D-F7 replicate 1, M-833 0.3125 uM): 97.7856
- Normalised to DMSO (Pop D-F7 replicate 1, M-833 0.625 uM): 91.2067
- Normalised to DMSO (Pop D-F7 replicate 1, M-833 1.25 uM): 89.8748
- Normalised to DMSO (Pop D-F7 replicate 1, M-833 2.5 uM): 70.9884
- Normalised to DMSO (Pop D-F7 replicate 1, M-833 5 uM): 54.6534
- Normalised to DMSO (Pop D-F7 replicate 1, M-833 10 uM): 28.9313
